In US11667649B2, “Heteroaromatic macrocyclic ether chemotherapeutic agents” (Nuvalent, Inc., priority 2020, dated 2023):

How the values were obtained:
TRKA-wt kinase domain = biological target: T1, TRKA-wt kinase domain (Homo sapiens, UniProt P04629); assay: Biochemical kinase assay, TRKA-wt; conditions: 2 mM ATP substrate solution, read-out: Ki^app TRKA-wt
T1 construct: TRKA-wt (1 nM, BPS Bio, 40280) kinase domains in buffer; purchased BPS Bio 40280
Procedure: (§1) First, 250 nL of compound dissolved in DMSO (100-fold of the desired concentration) was dispensed into a 384-well plate. A 12.5 μL substrate solution containing ATP (2 mM) and fluorogenic phosphorylation substrate AQT0101 (26 μM for ALK and ROS1, AssayQuant) or AQT0104 (26 μM for TRKA, AssayQuant) in buffer (50 mM HEPES pH 7.5, 0.01% Brij-35, 0.5 mM EGTA, 10 mM MgCl2) was added and mixed thoroughly. Then, a 12.5 μL kinase solution containing ALK-wt (1.5 nM, Carna, 08-518), ALK ALK L1196M/G1202R (3 nM, SignalChem, A19-12NG), ROS1-wt (0.6 nM, Carna, 08-163), ROS1-G2032R (0.5 nM, SignalChem, R14-12BG), or TRKA-wt (1 nM, BPS Bio, 40280) kinase domains in buffer ([…] HEPES pH 7.5, 0.01% Brij-35, 2% glycerol, 0.4 mg/mL BSA, 0.5 mM EGTA, and 10 mM MgCl2) was added and mixed thoroughly. The plate was sealed and read by SpectraMax Paradigm at λ=485 nm every 2 minutes for 120 minutes at 30° C. Initial rates of reaction (v) were calculated from the change in fluorescence intensity over time during the initial, linear portion of the reaction. Finally, apparent inhibitory constants (Ki^app) were determined from regression of v and I (inhibitor concentration) to Morrison Equation (E=enzyme concentration): […]

[1] = biological target: T2, ALK L1196M/G1202R kinase domain (Homo sapiens, UniProt Q9UM73, G1202R/L1196M); assay: Biochemical kinase assay, ALK L1196M/G1202R; conditions: 2 mM ATP substrate solution, read-out: Ki^app ALK-L1196M-G1202R
T2 construct: TRKA-wt (1 nM, BPS Bio, 40280) kinase domains in buffer; purchased SignalChem A19-12NG
Procedure: as §1

ALK-wt kinase domain = biological target: T3, ALK-wt kinase domain (Homo sapiens, UniProt Q9UM73); assay: Biochemical kinase assay, ALK-wt; conditions: 2 mM ATP substrate solution, read-out: Ki^app ALK-wt
T3 construct: TRKA-wt (1 nM, BPS Bio, 40280) kinase domains in buffer; purchased Carna 08-518
Procedure: as §1

[2] = biological target: T4, ROS1-G2032R kinase domain (Homo sapiens, UniProt P08922, G2032R); assay: Biochemical kinase assay, ROS1-G2032R; conditions: 2 mM ATP substrate solution, read-out: Ki^app ROS1-G2032R
T4 construct: TRKA-wt (1 nM, BPS Bio, 40280) kinase domains in buffer; purchased SignalChem R14-12BG
Procedure: as §1

[3] = tested on: TPM3-NTRK1-wt IC50 / primary target (e.g. CD74-ROS1-wt) IC50, Ba/F3 cells; assay: Cell assay TRKA selectivity (TRKA potency divided by primary target potency); assay type: cell-based; conditions: for TPM3-NTRK1-wt/CD74-ROS1-G2032R: TRKA selectivity ratio: TPM3-NTRK1-wt IC50 / CD74-ROS1-G2032R IC50, Ba/F3 cells; for TPM3-NTRK1-wt/CD74-ROS1-wt: TRKA selectivity ratio: TPM3-NTRK1-wt IC50 / CD74-ROS1-wt IC50, Ba/F3 cells; for TPM3-NTRK1-wt/EML4-ALK-L1196M-G1202R: TRKA selectivity ratio: TPM3-NTRK1-wt IC50 / EML4-ALK-L1196M-G1202R IC50, Ba/F3 cells; for TPM3-NTRK1-wt/EML4-ALK-wt: TRKA selectivity ratio: TPM3-NTRK1-wt IC50 / EML4-ALK-wt IC50, Ba/F3 cells
Summary of the method: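 IL-3-independent Ba/F3 lines stably expressing TPM3-TRKA or the primary fusion (e.g. CD74-ROS1 wt) were exposed to 3-fold compound dilutions for 72 h. Viability was read by CellTiter-Glo luminescence, with IC50 from four-parameter logistic fit. Selectivity is TPM3-NTRK1 IC50 divided by primary-target IC50, binned A (>30-fold) to D (<1).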

| SMILES | Ki (TRKA-wt kinase domain) | Ki [1] | Ki (ALK-wt kinase domain) | Ki [2] | TPM3-NTRK1-wt/CD74-ROS1-G2032R [3] | TPM3-NTRK1-wt/CD74-ROS1-wt [3] | TPM3-NTRK1-wt/EML4-ALK-L1196M-G1202R [3] | TPM3-NTRK1-wt/EML4-ALK-wt [3] |
| --- | --- | --- | --- | --- | --- | --- | --- | --- |
| CCn1ncc2c1-c1cnc(N)c(c1)O[C@H](C)c1cc(F)ccc1-n1ncc(F)c1C2 [Compound 46] | < 0.05 µM | < 0.05 µM | < 0.05 µM | < 0.05 µM |  |  |  |  |
| C[C@H]1Oc2cc(cnc2N)-c2c(cnn2CC2(C)CC2)Cc2cn(C)nc2-c2ccc(F)cc21 [Compound 159] | > 0.5 µM | < 0.05 µM | < 0.05 µM |  |  |  |  |  |
| CCc1nn(C)c2c1-c1cnc(N)c(c1)O[C@H](C)c1cc(F)ccc1-c1nc(C)sc1C2 [Compound 173] | < 0.05 µM | < 0.05 µM |  |  |  |  |  |  |
| CC1Oc2cc(cnc2N)-c2c(n[nH]c2C#N)Cc2cnn(C)c2-c2ccc(F)cc21 (stereo not shown) [Example 168, 22-amino-16-fluoro-11,19-dimethyl-20-oxa-4,5,10,11,23-pentaazapentacyclo[19.3.1.0^2,^6.0^8,^12.0^13,^18]pentacosa-1(24),2,5,8(12),9,13,15,17,21(25),22-decaene-3-carbonitrile] |  |  |  |  | A (bin A for very high selectivity, ratio>30-fold) | A (bin A for very high selectivity, ratio>30-fold) | B (bin B for high selectivity, ratio>10-fold) | A (bin A for very high selectivity, ratio>30-fold) |
| Cc1nc2c(s1)Cc1cnn(C(F)F)c1-c1cnc(N)c(c1)O[C@H](C)c1cc(F)ccc1-2 [Example 72, (19R)-3-(difluoromethyl)-16-fluoro-10,19-dimethyl-20-oxa-9-thia-3,4,11,23-tetraazapentacyclo[19.3.1.0^2,^6.0^8,^12.0^13,^18]pentacosa-1(24),2(6),4,8(12),10,13,15,17,21(25),22-decaen-22-amine] |  |  |  |  | A (bin A for very high selectivity, ratio>30-fold) | A (bin A for very high selectivity, ratio>30-fold) | C (bin C for moderate selectivity, ratio≥1) | A (bin A for very high selectivity, ratio>30-fold) |
| CCn1ncc2c1-c1cnc(N)c(c1)O[C@H](C)c1cc(F)ccc1-c1nccn1C2 [Example 31, (19R)-3-ethyl-16-fluoro-19-methyl-20-oxa-3,4,8,11,23-pentaazapentacyclo[19.3.1.0^2,^6.0^8,^12.0^13,^18]pentacosa-1(24),2(6),4,9,11,13,15,17,21(25),22-decaen-22-amine] |  |  |  |  | A (bin A for very high selectivity, ratio>30-fold) | A (bin A for very high selectivity, ratio>30-fold) | C (bin C for moderate selectivity, ratio≥1) | A (bin A for very high selectivity, ratio>30-fold) |
| CCn1ncc2c1-c1ccc(F)cc1[C@@H](C)Oc1cc(cnc1N)-c1c(cnn1C)C2 [Example 4, (19R)-11-ethyl-16-fluoro-3,19-dimethyl-20-oxa-3,4,10,11,23-pentaazapentacyclo[19.3.1.0^2,^6.0^8,^12.0^13,^18]pentacosa-1(24),2(6),4,8(12),9,13,15,17,21(25),22-decaen-22-amine] |  |  |  |  | B (bin B for high selectivity, ratio>10-fold) | A (bin A for very high selectivity, ratio>30-fold) | D (bin D for low selectivity, ratio<1) | C (bin C for moderate selectivity, ratio≥1) |
| CCn1ncc2c1-c1cnc(N)c(c1)OC(C)c1cc(F)ccc1-c1cnccc1C2 (stereo not shown) [Example 35, 3-ethyl-17-fluoro-20-methyl-21-oxa-3,4,11,24-tetraazapentacyclo[20.3.1.0^2,^6.0^8,^13.0^14,^19]hexacosa-1(25),2(6),4,8(13),9,11,14,16,18,22(26),23-undecaen-23-amine] |  |  |  |  | A (bin A for very high selectivity, ratio>30-fold) | A (bin A for very high selectivity, ratio>30-fold) | C (bin C for moderate selectivity, ratio≥1) | A (bin A for very high selectivity, ratio>30-fold) |
| CCn1ncc2c1-c1cnc(N)c(c1)O[C@H](C)c1cc(F)ccc1-c1nn(C)cc1C2 [Example 1, (19R)-3-ethyl-16-fluoro-10,19-dimethyl-20-oxa-3,4,10,11,23-pentaazapentacyclo[19.3.1.0^2,^60^8,^12.0^13,^18]pentacosa-1(24),2(6),4,8,11,13,15,17,21(25),22-decaen-22-amine] |  |  |  |  | A (bin A for very high selectivity, ratio>30-fold) | A (bin A for very high selectivity, ratio>30-fold) | A (bin A for very high selectivity, ratio>30-fold) | A (bin A for very high selectivity, ratio>30-fold) |
| C[C@H]1Oc2cc(cnc2N)-c2c(C#N)cnn2Cc2cn(C)nc2-c2ccc(F)cc21 [Example 9, (19R)-22-amino-16-fluoro-10,19-dimethyl-20-oxa-5,6,10,11,23-pentaazapentacyclo[19.3.1.0^2,^6.0^8,^12.0^13,^18]pentacosa-1(24),2,4,8,11,13,15,17,21(25),22-decaene-3-carbonitrile] |  |  |  |  | B (bin B for high selectivity, ratio>10-fold) | A (bin A for very high selectivity, ratio>30-fold) | C (bin C for moderate selectivity, ratio≥1) | A (bin A for very high selectivity, ratio>30-fold) |
| CCn1ncc2c1-c1cnc(N)c(c1)O[C@H](C)c1cc(F)ccc1-c1onc(C)c1C2 [Example 161, (19R)-3-ethyl-16-fluoro-9,19-dimethyl-11,20-dioxa-3,4,10,23-tetraazapentacyclo[19.3.1.0^2,^6.0^8,^12.0^13,^18]pentacosa-1(24),2(6),4,8(12),9,13,15,17,21(25),22-decaen-22-amine] |  |  |  |  | C (bin C for moderate selectivity, ratio≥1) | C (bin C for moderate selectivity, ratio≥1) | D (bin D for low selectivity, ratio<1) | C (bin C for moderate selectivity, ratio≥1) |
| CCn1nc(C)c2c1-c1cnc(N)c(c1)O[C@H](C)c1cc(F)ccc1-c1nn(C)cc1C2 [Example 81, (19R)-3-ethyl-16-fluoro-5,10,19-trimethyl-20-oxa-3,4,10,11,23-pentaazapentacyclo[19.3.1.0^2,^6.0^8,^12.0^13,^18]pentacosa-1(24),2(6),4,8,11,13,15,17,21(25),22-decaen-22-amine] |  |  |  |  | A (bin A for very high selectivity, ratio>30-fold) | A (bin A for very high selectivity, ratio>30-fold) | B (bin B for high selectivity, ratio>10-fold) | A (bin A for very high selectivity, ratio>30-fold) |
| CCc1ncn2c1-c1cnc(N)c(c1)O[C@H](C)c1cc(F)ccc1-c1nn(C)cc1C2 [Example 50, (19R)-3-ethyl-16-fluoro-10,19-dimethyl-20-oxa-4,6,10,11,23-pentaazapentacyclo[19.3.1.0^2,^6.0^8,^12.0^13,^18]pentacosa-1(24),2,4,8,11,13,15,17,21(25),22-decaen-22-amine] |  |  |  |  | A (bin A for very high selectivity, ratio>30-fold) | A (bin A for very high selectivity, ratio>30-fold) | B (bin B for high selectivity, ratio>10-fold) | A (bin A for very high selectivity, ratio>30-fold) |
